Laboratory results published in patent US12611459B2, “System and method for unbinding of plasma protein-bound active agents using an ultrasound system” (The Brigham and Women's Hospital, Inc., priority 2019, dated 2026).

Columns and labels:
[1] = biological target: bovine serum albumin (BSA) (Bos taurus, UniProt P02769); experiment: equilibrium dialysis of albumin-phenytoin solution under focused ultrasound (FUS), HPLC of dialysate; type: in vitro ADME; settings: for phenytoin level in dialysate: FUS 250 kHz, 55 ms TBD, 4 Hz PRF, 5 W/cm2 Isppa, 55 min; for elevation of unbound phenytoin level at the focus: p<0.05
Sequence of bovine serum albumin (BSA) (P02769 25-607): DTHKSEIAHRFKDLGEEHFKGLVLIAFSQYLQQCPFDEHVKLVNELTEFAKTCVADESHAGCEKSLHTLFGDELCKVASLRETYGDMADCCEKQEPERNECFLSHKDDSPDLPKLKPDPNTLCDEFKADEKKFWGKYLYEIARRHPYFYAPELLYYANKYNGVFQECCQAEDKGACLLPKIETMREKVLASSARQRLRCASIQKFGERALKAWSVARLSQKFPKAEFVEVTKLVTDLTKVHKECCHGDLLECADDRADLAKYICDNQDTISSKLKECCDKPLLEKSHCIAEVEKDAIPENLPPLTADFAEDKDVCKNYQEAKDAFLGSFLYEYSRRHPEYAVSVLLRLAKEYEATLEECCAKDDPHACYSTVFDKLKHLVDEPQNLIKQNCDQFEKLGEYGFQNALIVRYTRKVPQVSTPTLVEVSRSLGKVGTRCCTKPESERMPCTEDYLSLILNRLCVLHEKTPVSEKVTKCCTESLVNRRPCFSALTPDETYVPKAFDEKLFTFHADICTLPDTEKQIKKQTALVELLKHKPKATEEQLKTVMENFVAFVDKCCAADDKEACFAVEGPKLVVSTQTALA
Experimental: The ability of FUS to unbind phenytoin from albumin was assessed in this example by an equilibrium dialysis (ED), whereby the cocktail of albumin-phenytoin was sonicated, and unbound phenytoin was allowed to pass through the membrane to be collected and analyzed. As a part of in vitro testing, a visible dye, Toluidine Blue O, was dissolved in an aqueous solution of albumin and the spatial distribution of the degree of its unbinding from the albumin through the application of FUS was qualitatively evaluated via gel infiltration using agar gel block.
In this example, an in vitro experimental chamber was constructed using a 3D printer (clear resin) to measure the effects of FUS on albumin-phenytoin binding. The chamber includes four slots to place four microdialysis cassettes (7 kMW cut-off pore size; 4×4×0.8 cm; H×L×W) whereby one is placed perpendicular to the sonication focus (‘FF’), and three others are placed away from the focus (‘F01’ through ‘F03’). A FUS transducer having 13 mm focal length (away from the exit plane) and operating at a fundamental frequency of 250 kHz was used to sonicate the middle of the dialysis window (‘FF’). The output pressure wave from the transducer was calibrated for the input signal generator and the acoustic map perpendicular to the sonication axis was mapped using known methods. An identical setup was prepared separately and was not sonicated to provide a control.
In this example, bovine serum albumin (BSA) was dissolved in a phosphate-buffered saline (PBS) (pH7.4) at a concentration of 46 mg/mL concentration, and 200 mL of resulting solution was poured into the chamber. The experiment was conducted at a room temperature (20-21° C.) and the solution temperature was equilibrated at the ambient temperature. The solution was not degassed and kept the ambient gas content (O2 6.1 ppm; measured using dissolved oxygen meter). The wall of the chamber was padded with rubber inserts to absorb the incident acoustic waves to prevent reflection or reverberation within the chamber.
In this example, phenytoin was dissolved (15 μg/mL) in PBS having bovine serum albumin (BSA) concentration of 45 mg/mL to emulate the clinical serum concentration. The temperature of the solution was monitored during the sonication to examine the potential effect from the temperature of the solution on the bound phenytoin. The dialysis cassettes, after hydration according to known methods, were filled with PBS (0.5 ML) and were placed into the bath. Subsequently, sonication was given for 55 min at 250 kHz in pulsed manner (55 ms TBD, 4 Hz PRF, at 5 W/cm2 Isppa Spatial-Peak Pulse-Average Intensity, i.e. 22% duty cycle). The mechanical index (MI) of the focus was 0.8 (corresponding to peak negative pressure of 391 kPa). The temperature of the solution was monitored. […] The obtained samples underwent High Performance Liquid Chromatography (HPLC) for the measurement of phenytoin concentration after the calibration of the known absolute level of the phenytoin. The HPLC system consisted of an autosampler, a dual piston pump, and an electrochemical detector coupled to a guard cell and an analytical cell.

[2] = rat, in vivo
Experimental: In this example the effects of focused ultrasound (FUS) on unbinding phenytoin from albumin was evaluated in an animal model (rat). The enhancement of phenytoin was assessed using immunohistochemistry (IHC) followed by intraperitoneal injection of phenytoin and subsequent sonication of the unilateral hemisphere. All IHC was performed on an automated staining platform. Hematoxylin and eosin (H&E) staining was also performed to assess for tissue hemorrhage. The same sonication parameters and device were used as in the first example described above except the sonication was delivered for 35 minutes.
FUS was delivered to the brain areas in the right hemisphere at a fundamental frequency of 250 kHz in a pulsed manner (55 ms TBD, 4 Hz PRF, at 5 W/cm^2 Isppa) for 35 minutes. FIG. 4 illustrates example mosaic H&E microscope images 402, example, mosaic phenytoin-stained IHC images 404 and example inverted grayscale images 406 of the phenytoin IHC in accordance with an embodiment. […] In the IHC images 404, the dotted ovals 408 indicate the approximate location of the FUS sonication focus (in the right hemisphere of the brain).

[3] = test system: plasma proteins, primarily albumin; settings: cited from earlier work

phenytoin level in dialysate ([1]; at the acoustic focus (FF), n=6): 1.38 ± 0.2 µg/mL | elevation of unbound phenytoin level at the focus ([1]; compared to outside of focus): ~21.4% | elevation of unbound phenytoin level at the focus ([1]; compared to the control): approximately 27.7% | averaged phenytoin level in dialysate ([1]; control chamber (CTRL), not sonicated, n=12): 1.52 ± 0.16 µg/mL | phenytoin level in dialysate ([1]; outside of focus (FO), n=12): 1.13 ± 0.08 µg/mL | difference in phenytoin level between control condition and outside of focus ([1]; p>0.1): no significant difference
Structure (SMILES): O=C1NC(=O)C(c2ccccc2)(c2ccccc2)N1 [phenytoin]
tissue injury or hemorrhage (H&E) [2]: no evidence of tissue injury or hemorrhage | fraction available in an unbound state ([3]; at clinical dose): ~12% | binding level to plasma proteins ([3]; primarily to albumin): approximately 90%
